Test results published in PubChem BioAssay AID2060889 (Molecular Pharmacology Branch, DTP, NCI, 2025).

Tested on: LG0567-F671-PDC complex spheroids viability
Test: Anticancer human tumor LG0567-F671-PDC patient-derived lung adenocarcinoma cell line growth inhibition [RAS]
Settings: for IC50: curve of first compound; for viability, T/C: stronger effect = lower value
Text: RAS pathway inhibitors in Combinations in Complex Spheroids
A high-throughput screen of multi-cell type tumor spheroids was designed to identify active combinations of RAS pathway inhibitors and targeted small molecules. Complex spheroids include a stromal component modeled by human endothelial cells (HUVEC) and fibroblasts modeled by human mesenchymal stem cells (MSCs). The concentration ranges selected for each drug and investigational agent were based upon clinically achievable concentrations if the clinical Cmax of the agent was known.
Compounds. The drugs and investigational agents: abemaciclib (NSC768073), cobimetinib (NSC768068), divarasib (GDC6063, NSC841802), docetaxel (NSC628503), GDC-1971 (RLY-1971, NSC841576), gemcitabine (NSC613327), inavolisib (NSC800729), ipatasertib (NSC767898), KB-0742 (NSC834161), MRTX-1133 (NSC836407), osimertinib (NSC779217), RMC-4630 (NSC839698), RMC-6236 (NSC851965), RMC-6291 (NSC852671), Ro-3306 (NSC812927), sapanisertib (NSC764658), SN-38 (NSC673596), staurosporine (NSC755774), SY5609 (NSC837396), and tovorafenib (DAY101, NSC766906), were obtained from the National Cancer Institute (NCI) Developmental Therapeutics Program Chemical Repository. The FDA-approved anticancer drug set is available from the NCI Developmental Therapeutics Program. […] The stock solutions were prepared in dimethyl sulfoxide (DMSO, Sigma-Aldrich, St. Louis, MO, cat. D2650) at 800-fold the tested concentration and stored at -70 degrees C prior to their use. All drugs and investigational agents were tested over a range starting from a high concentration at or near the clinical Cmax and decreasing in half-log increments. If the clinical Cmax for an agent had not been determined, the highest concentration tested was 10 microM.
Cell Culture. All cells were maintained in an incubator at 37 degrees C and 5% CO2 with 95% humidity. The PDC lines were cultured according to standard operating procedures established by the NCI PDMR. All PDCs were thawed and cultured in Matrigel-coated flasks prepared with a working solution of 1X Ham's F-12 nutrient mix, without supplementation (Invitrogen, Waltham, MA, cat. 11765054), 100 U/mL penicillin-streptomycin (Invitrogen, cat. 15140122), and 2.5% Matrigel (Corning Inc., Corning, NY, cat. 354248) for the first three passages. The 362531-283-R-J2-PDC and 782815-120-R-J1-PDC lines were cultured in 6C/Colon 1B media, which includes advanced DMEM/F-12 (Thermo Fisher Scientific, cat. 12634028), 10 mM HEPES (Thermo Fisher Scientific, cat. 15630080), 1X GlutaMAX supplement (Thermo Fisher Scientific, cat. 35050061), 0.1 mg/mL primocin (InvivoGen, San Diego, CA, cat. ant-pm-2), 10% defined fetal bovine serum, heat inactivated (HyClone Laboratories Inc., Logan, UT, cat. SH30070.03HI), 50% L-WRN conditioned media (ATCC, cat. CRL-3276), 1.25 mM N-Acetyl-L-cysteine (Sigma-Aldrich, cat. A9165), 10 mM nicotinamide (Sigma-Aldrich, cat. N0636), 1X B-27 supplement (Thermo Fisher Scientific, cat. 17504044), 1X N-2 supplement (Thermo Fisher Scientific, cat. 17502048), 50 ng/mL human EGF (Thermo Fisher Scientific, cat. PHG0311), and 10 microM Y-27632 dihydrochloride (Tocris Bioscience, cat. 1254). The K12877-001-R-J1-PDC line was cultured in 6I media, which includes all 6C/Colon 1B media plus 10 ng/mL human FGF-10 (PeproTech, cat. 100-26), 1 ng/mL human FGF-2 (PeproTech, cat. 100-18B), 1 µM prostaglandin E2 (Tocris Bioscience, cat. 2296), […] hydrocortisone (Sigma-Aldrich, cat. H4001), and […] bovine insulin (Sigma-Aldrich, cat. I6634). The K86415-001-R-J1-PDC line was cultured in 6D media, which includes all 6C/Colon 1B media components minus the L-WRN conditioned media. The 485176-168-R4-J1-PDC was cultured in PANC media, which includes all 6C/Colon 1B media plus 100 ng/mL human FGF-10 (PeproTech, cat. 100-26), 500 nM SB-431542 (Selleckchem, cat. S1067), and 10 nM gastrin (Tocris Bioscience, cat. 3006). […]
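Note: spheroids exposed to compound for seven days before readout.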
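Throughout, for IC50: luminescence signal used as a proxy for viable cells.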

Question: What does the source list for `CC1(O)CCCC1n1c(=O)c(C(F)F)cc2cnc(NC3CCN(S(C)(=O)=O)CC3)nc21` (configuration not stated) + C#Cc1c(F)ccc2cc(O)cc(-c3ncc4c(N5CC6CCC(C5)N6)nc(OCC56CCCN5CC(F)C6)nc4c3F)c12?
Answer: IC50 (second compound 0.0316 µM): 5.85 µM; IC50 (second compound 0.1 µM): 6.12 µM; IC50 (second compound 0.316 µM): 3.37 µM; IC50 (second compound 1 µM): < 0.0316 µM; IC50 (second compound 3.16 µM): < 0.0316 µM; IC50 (second compound 10 µM): < 0.0316 µM; viability, T/C (second compound 0.0316 µM, first compound 0.0316 µM): 85.5%; viability, T/C (second compound 0.0316 µM, first compound 0.1 µM): 68.3%; viability, T/C (second compound 0.0316 µM, first compound 0.316 µM): 77.8%; viability, T/C (second compound 0.0316 µM, first compound 1 µM): 85.4%; viability, T/C (second compound 0.0316 µM, first compound 3.16 µM): 78.9%; viability, T/C (second compound 0.0316 µM, first compound 10 µM): 24.9%; viability, T/C (second compound 0.1 µM, first compound 0.0316 µM): 72.2%; viability, T/C (second compound 0.1 µM, first compound 0.1 µM): 59.1%; viability, T/C (second compound 0.1 µM, first compound 0.316 µM): 75.2%; viability, T/C (second compound 0.1 µM, first compound 1 µM): 81.6%; viability, T/C (second compound 0.1 µM, first compound 3.16 µM): 76.9%; viability, T/C (second compound 0.1 µM, first compound 10 µM): 33.1%; viability, T/C (second compound 0.316 µM, first compound 0.0316 µM): 56.1%; viability, T/C (second compound 0.316 µM, first compound 0.1 µM): 56.2%; viability, T/C (second compound 0.316 µM, first compound 0.316 µM): 62.7%; viability, T/C (second compound 0.316 µM, first compound 1 µM): 54.5%; viability, T/C (second compound 0.316 µM, first compound 3.16 µM): 71.1%; viability, T/C (second compound 0.316 µM, first compound 10 µM): 27.5%; viability, T/C (second compound 1 µM, first compound 0.0316 µM): 33.1%; viability, T/C (second compound 1 µM, first compound 0.1 µM): 36.8%; viability, T/C (second compound 1 µM, first compound 0.316 µM): 45.6%; viability, T/C (second compound 1 µM, first compound 1 µM): 40%; viability, T/C (second compound 1 µM, first compound 3.16 µM): 40.6%; viability, T/C (second compound 1 µM, first compound 10 µM): 18.3%; viability, T/C (second compound 3.16 µM, first compound 0.0316 µM): 17.3%; viability, T/C (second compound 3.16 µM, first compound 0.1 µM): 23.6%; viability, T/C (second compound 3.16 µM, first compound 0.316 µM): 25.2%; viability, T/C (second compound 3.16 µM, first compound 1 µM): 29.3%; viability, T/C (second compound 3.16 µM, first compound 3.16 µM): 23.3%; viability, T/C (second compound 3.16 µM, first compound 10 µM): 14.6%; viability, T/C (second compound 10 µM, first compound 0.0316 µM): 14.2%; viability, T/C (second compound 10 µM, first compound 0.1 µM): 15.3%; viability, T/C (second compound 10 µM, first compound 0.316 µM): 17.8%; viability, T/C (second compound 10 µM, first compound 1 µM): 18.5%; viability, T/C (second compound 10 µM, first compound 3.16 µM): 14.7%; viability, T/C (second compound 10 µM, first compound 10 µM): 8.46%
